Where two headings read alike, the source gives them in different places.
Assays:
[1] = test system: ovariectomized (OVX) female Sprague Dawley rats; assay: Serum cholesterol in OVX rats, 4-day dosing; type: in vivo, rat
Source text: (§1) Seventy-five day old female Sprague Dawley rats (weight range of 200 to 225 g) were obtained from Charles River Laboratories (Portage, Mich.). The animals were either bilaterally ovariectomized (OVX) or exposed to a Sham surgical procedure at Charles River Laboratories, and then shipped after one week. Upon arrival, they were housed in metal hanging cages in groups of 3 or 4 per cage and had ad libitum access to food (calcium content approximately 0.5%) and water for one week. Room temperature was maintained at 22.2°±1.7° C. with a minimum relative humidity of 40%. The photoperiod in the room was 12 hours light and 12 hours dark.
(§2) Dosing Regimen Tissue Collection. After a one week acclimation period (therefore, two weeks post-OVX) daily dosing with test compound was initiated. 17α-ethynyl estradiol or the test compound were given orally, unless otherwise stated, as a suspension in 1% carboxymethylcellulose or dissolved in 20% cyclodextrin. Animals were dosed daily for 4 days. Following the dosing regimen, animals were weighed and anesthetized with a ketamine: Xylazie (2:1, V:V) mixture and a blood sample was collected by cardiac puncture. The animals were then sacrificed by asphyxiation with CO2, the uterus was removed through a midline incision, and a wet uterine weight was determined.
Cholesterol Analysis. Blood samples were allowed to clot at room temperature for 2 hours, and serum was obtained following centrifugation for 10 minutes at 3000 rpm. Serum cholesterol was determined using a Boehringer Mannheim Diagnostics high performance cholesterol assay. Briefly the cholesterol was oxidized to cholest-4-en-3-one and hydrogen peroxide. The hydrogen peroxide was then reacted with phenol and 4-aminophenazone in the pressure of peroxidase to produce a p-quinone imine dye, which was read spectrophotemetrically at 500 nm. Cholesterol concentration was then calculated against a standard curve. The entire assay was automated using a Biomek Automated Workstation.
(§3) Data presented in Table 1 below show comparative results among ovariectomized rats, rats treated with 17α-ethynyl estradiol (EE2; an orally available form of estrogen), and rats treated with certain compounds of the present invention. […] This uterine response to estrogen is well recognized in the art.
(§4) The data presented in the Tables 1 below reflects the response of 5 to 6 rats per treatment.

[2] = test system: ovariectomized (OVX) female Sprague Dawley rats; conditions: rat, in vivo, po, 4 days
Protocol: In the examples illustrating the methods, a post-menopausal model was used in which effects of different treatments upon circulating lipids were determined.
as §1, §2, §3, §4

[3] = test system: Uterine Eosinophil Peroxidase (EPO); conditions: rat, in vivo; for Uterine EPO (V. max): po
Source text: as §1, §2
Uterine Eosinophil Peroxidase (EPO) Assay. Uteri were kept at 4° C. until time of enzymatic analysis. The uteri were then homogenized in 50 volumes of 50 mM Tris Buffer (pH −8.0) containing 0.005% Triton X-100. Upon addition of 0.01% hydrogen peroxide and 10 mM O-phenylenediamine (final concentrations) in Tris buffer, increase in absorbance was monitored for one minute at 450 nm. The presence of eosonophils in the uterus is an indication of estrogenic activity of a compound. The maximal velocity of a 15 second interval was determined over the initial, linear portion of the reaction curve.
As is expressed in the below data, estrogenicity also was assessed by evaluating the adverse response to eosinophil infiltration into the uterus.
as §4

[4] = test system: ovariectomized (OVX) female Sprague Dawley rats; assay: Osteoporosis Test Procedure: distal femur metaphysis X-ray image analysis, OVX rats, 35 days; type: in vivo, rat; conditions: for Distal Femur Metaphysis (X-ray Image Analysis-Gray Score): 0.1 mg/kg, mean ± SEM
Source text: as §1
Following the General Preparation Procedure, infra, the rats were treated daily for 35 days (6 rats per treatment group) and sacrificed by carbon dioxide asphyxiation on the 36th day. The 35 day time period was sufficient to allow maximal reduction in bone density, measured as described herein. At the time of sacrifice, the uteri were removed, dissected free of extraneous tissue, and the fluid contents were expelled before determination of wet weight in order to confirm estrogen deficiency associated with complete ovariectomy. […] The uteri were then placed in 10% neutral buffered formalin to allow for subsequent histological analysis.
The right femurs were excised and digitilized x-rays generated and analyzed by an image analysis program (NIH image) at the distal metaphysis. The proximal aspect of the tibiae from these animals were also scanned by quantitative computed tomography.
In accordance with the above procedures, compounds of the present invention and ethynyl estradiol (EE2) in 20% hydroxypropyl β-cyclodextrin were orally administered to test animals. Distal femur metaphysis data presented in Tables 2 and 3 below are the results of formula I compound treatments compared to intact and ovariectomized test animals. Results are reported as the mean ± the standard error of the mean.

[5] = Rattus norvegicus, po, 96 h, oral daily for 4 days, dose 0.1 mg/kg, read-out: Serum Cholesterol (% decrease vs. OVX)
[6] = Rattus norvegicus, po, 96 h, oral daily for 4 days, read-out: Serum Cholesterol (% decrease vs. OVX)
[7] = female, Sprague Dawley, 0.1 mg/kg, 4 days
[8] = female, Sprague Dawley, 1 mg/kg, 4 days
[9] = female, Sprague Dawley, 10 mg/kg, 4 days

| Compound | Uterine Weight (% increase vs. OVX) ([2]; 0.1 mg/kg) [%] | Uterine Weight (% increase vs. OVX) ([2]; 1 mg/kg) [%] | Uterine Weight (% increase vs. OVX) ([2]; 10 mg/kg) [%] | Uterine EPO (V. max) [3, 7] | Uterine EPO (V. max) [3, 8] | Uterine EPO (V. max) [3, 9] | Uterine Weight (% increase vs. OVX) ([2]; 0.01 mg/kg) [%] | Uterine EPO (V. max) ([3]; female, Sprague Dawley, 0.01 mg/kg, 4 days) | Uterine EPO (V. max) ([3]; 0.1 mg/kg) | inhibition in vivo at 0.1 mg/kg [1, 5] [%] | inhibition in vivo at 1 mg/kg [1, 6] [%] | inhibition in vivo at 10 mg/kg [1, 6] [%] | inhibition in vivo at 0.01 mg/kg ([1]; Rattus norvegicus, po, 96 h, oral daily for 4 days, dose 0.01 mg/kg, read-out: Serum Cholesterol (% decrease vs. OVX)) [%] | Serum Cholesterol (% decrease vs. OVX) ([1]; oral daily for 4 days, dose 0.1 mg/kg) [%] | serum cholesterol compared to ovariectomized control animals (in words) ([1]; oral, 4 days, EE2 at 0.1 mg/kg/day) | Distal Femur Metaphysis (X-ray Image Analysis-Gray Score) ([4]; Table 2, oral daily 35 days in 20% cyclodextrin, OVX control 5.5 ± 0.6, Sham 30.5 ± 4.3) | Distal Femur Metaphysis (X-ray Image Analysis-Gray Score) ([4]; Table 3, oral daily 35 days in 20% cyclodextrin, OVX control 7.2 ± 2.2, Sham 44.7 ± 6.4) | bone loss / femur density after ovariectomy (in words) ([4]; oral, 35 days) | eosinophil infiltration into the uterus (number of eosinophils in the stromal layer, in words) [3] |
| --- | --- | --- | --- | --- | --- | --- | --- | --- | --- | --- | --- | --- | --- | --- | --- | --- | --- | --- | --- |
| COc1ccc(-c2ccc3ccccc3c2Cc2ccc(OCCN3CCCCC3)cc2)cc1.Cl [Example 15, [2-(4-Methoxyphenyl)-naphthalen-1-yl][4-[2-(1-piperdinyl)ethoxy]phenyl]methane hydrochloride] | 41.6 | 21.2 | 53.7 | 7.0 | 5.2 | 5.5 | 29.3 | 4.6 |  | 53.4 | 66 | 55.4 | 12.4 |  |  |  |  |  |  |
| C#C[C@]1(O)CC[C@H]2[C@@H]3CCc4cc(O)ccc4[C@H]3CC[C@@]21C [EE2, 17α-ethynyl estradiol, reference compound] |  |  |  |  |  |  |  |  | 116.4 |  |  |  |  | 81.4 | caused a decrease in serum cholesterol | 32.8 ± 7.9 | 44.4 ± 4.8 | prevented this loss | substantial, expected increase in eosinophil infiltration |
| CCCCS(=O)(=O)Oc1ccc(-c2ccc3cc(OS(=O)(=O)CCCC)ccc3c2Cc2ccc(OCCN3CCCCC3)cc2)cc1 [Example 5, [2-(4-n-Butylsulfonyloxyphenyl)-6-n-butylsulfonyloxynaphthalen-1-yl][4-[2-(1-piperidinyl)ethoxy]phenyl]methane] | 43.2 | 16.0 | 25.3 | 3.4 | 4.3 | 2.6 |  |  |  | 6 | 62 | 46.2 |  |  |  |  |  |  |  |
| CC(C)(C)C(=O)Oc1ccc(-c2ccc3cc(OC(=O)C(C)(C)C)ccc3c2Cc2ccc(OCCN3CCCCC3)cc2)cc1 [Example 4, [2-(4-Pivaloyloxyphenyl)-6-pivaloyloxynaphthalen-1-yl][4-[2-(1-piperidinyl)ethoxy]phenyl]methane] | 52.1 | 22.8 | 75.2 | 3.6 | 2.9 | 3.4 |  |  |  | 21.2 | 37.2 | 20.8 |  |  |  |  |  |  |  |
| Oc1ccc2c(Cc3ccc(OCCN4CCCC4)cc3)c(-c3ccccc3)ccc2c1 [Example 12] | 26.3 | 18.6 | 25.1 | 12.0 | 4.8 | 4.5 |  |  |  | 46.3 | 49.9 | 50.1 |  |  |  |  |  |  |  |
| CCN(CC)CCOc1ccc(Cc2c(-c3ccc(OC)cc3)ccc3cc(OC)ccc23)cc1.Cl [Example 22, [2-(4-Methoxyphenyl)-6-methoxynaphthalen-1-yl][4-[2-(1-N,N-diethylamino)ethoxy]phenyl]methane hydrochloride] | 83.9 | 87.5 | 89.3 | 45.0 | 41.1 | 46.2 |  |  |  | 72 | 60.5 | 68.7 |  |  |  |  |  |  |  |
| Oc1ccc2c(Cc3ccc(OCCN4CCCCC4)cc3)c(-c3ccccc3)ccc2c1 [Example 11, [2-Phenyl-6-hydroxynaphthalen-1-yl][4-[2-(1-piperdinyl)ethoxy]phenyl]methane] | 48.1 | 47.4 | 14.4 | 4.8 | 3.9 | 3.9 |  |  |  | 60.2 | 73.5 | 72.4 |  |  |  |  |  |  |  |
| COc1ccc(-c2ccc3cc(OC)ccc3c2Cc2ccc(OCCN3CCCCCC3)cc2)cc1.Cl [Example 26, [2-(4-Methoxyphenyl)-6-methoxynaphthalen-1-yl][4-[2-(1-hexamethyleneiminyl)ethoxy]phenyl]methane hydrochloride] |  |  |  |  |  |  |  |  |  | 45.1 | 55.5 | 60.6 |  |  |  |  |  |  |  |

The next lines start with results.

| Uterine Weight (% increase vs. OVX) ([2]; 0.1 mg/kg) [%] | Uterine Weight (% increase vs. OVX) ([2]; 1 mg/kg) [%] | Uterine Weight (% increase vs. OVX) ([2]; 10 mg/kg) [%] | Uterine EPO (V. max) [3, 7] | Uterine EPO (V. max) [3, 8] | Uterine EPO (V. max) [3, 9] | Uterine Weight (% increase vs. OVX) ([2]; 0.01 mg/kg) [%] | Uterine EPO (V. max) ([3]; female, Sprague Dawley, 0.01 mg/kg, 4 days) | Uterine EPO (V. max) ([3]; 0.1 mg/kg) | Compound | inhibition in vivo at 0.1 mg/kg [1, 5] [%] | inhibition in vivo at 1 mg/kg [1, 6] [%] | inhibition in vivo at 10 mg/kg [1, 6] [%] | inhibition in vivo at 0.01 mg/kg ([1]; Rattus norvegicus, po, 96 h, oral daily for 4 days, dose 0.01 mg/kg, read-out: Serum Cholesterol (% decrease vs. OVX)) [%] | Serum Cholesterol (% decrease vs. OVX) ([1]; oral daily for 4 days, dose 0.1 mg/kg) [%] | serum cholesterol compared to ovariectomized control animals (in words) ([1]; oral, 4 days, EE2 at 0.1 mg/kg/day) | Distal Femur Metaphysis (X-ray Image Analysis-Gray Score) ([4]; Table 2, oral daily 35 days in 20% cyclodextrin, OVX control 5.5 ± 0.6, Sham 30.5 ± 4.3) | Distal Femur Metaphysis (X-ray Image Analysis-Gray Score) ([4]; Table 3, oral daily 35 days in 20% cyclodextrin, OVX control 7.2 ± 2.2, Sham 44.7 ± 6.4) | bone loss / femur density after ovariectomy (in words) ([4]; oral, 35 days) | eosinophil infiltration into the uterus (number of eosinophils in the stromal layer, in words) [3] |
| --- | --- | --- | --- | --- | --- | --- | --- | --- | --- | --- | --- | --- | --- | --- | --- | --- | --- | --- | --- |
| 50.5 | 55.4 | 69.7 | 9.3 | 39.3 | 34.8 |  |  |  | Oc1ccc(-c2ccc3cc(O)ccc3c2Cc2ccc(OCCN3CCOCC3)cc2)cc1 [Example 32] | 57.9 | 60.3 | 65.7 |  |  |  |  |  |  |  |
| 40.8 | 79.0 | 63.0 | 12.9 | 55.2 | 73.5 |  |  |  | CC1(C)CCN(CCOc2ccc(Cc3c(-c4ccc(O)cc4)ccc4cc(O)ccc34)cc2)C1 [Example 33, [2-(4-Hydroxyphenyl)-6-hydroxynaphthalen-1-yl][4-[2-(1-(3,3-dimethyl)pyrrolidinyl)ethoxy]phenyl]methane] | 25.2 | 41.1 | 52.8 |  |  |  |  |  |  |  |
| −12.4 | 1.0 | 7.1 | 0.9 | 5.4 | 4.5 |  |  |  | Oc1ccc(-c2ccc3cc(O)ccc3c2Cc2ccc(OCCN3CCCC3)cc2)cc1 [Example 19] | 4.5 | 19.7 | 40.9 |  |  |  |  |  |  |  |
